According to patent US11576326B2, “Wheat with new alleles of Rht-B1” (Commonwealth Scientific and Industrial Research Organisation, priority 2012, dated 2023):

Key:
[1] = tested on: barley endosperm half-grains; experiment: α-Amylase production by endosperm half-grains incubated with GA3 (Ceralpha procedure); details: for α-Amylase at 42 h / α-Amylase at 72 h: GA3 (1 μM), 22° C.
Procedure: Endosperm half-grains were prepared and incubated with or without GA3 (1 μM) at 22° C. for 0, 42 or 72 h. To each sample, 1.5 mL of a solution of 10 mm CaCl2 was added, the half-grains were homogenised, and an aliquot of 1 mL was clarified by centrifugation (20,000 g for 5 min). The supernatant was analyzed for α-amylase activity using the Megazyme alpha-amylase (Ceralpha) procedure.
The production of α-amylase by endosperm half-grains of wild-type barley is dependent on the presence of an active GA. Therefore, monitoring α-amylase activity in the absence of an active GA provided a convenient measure of the extent of ‘basal’ GA signaling in the mutants. […] Among the overgrowth derivatives of Sln1d, the Sln1d.9 derivative was exceptional, accumulating very high levels of α-amylase at both 42 h and 72 h incubation, despite this line showing only a modest restoration of growth rate (Table 5).

[2] = tested on: barley seedlings (first leaf); experiment: Maximal daily leaf elongation rate (LERmax) of the first leaf of barley seedlings, with GA3; format: in vivo
Text: The methods have been previously described (Chandler and Robertson, 1999). Curves were fitted to data points using a 4-parameter Hill equation.
The maximal daily rate of elongation (LERmax) achieved by the first leaf under standard conditions was a robust measure of GA responsiveness (Chandler and Robertson, 1999) and was therefore determined for all of the barley overgrowth lines and their parents (Table 5). […] Three overgrowth alleles (sln1m, sln1n and sln1s) were compared in both their original dwarfing genetic background as well as after back-crossing to the tall WT background. […] In a wild-type background, the overgrowth alleles tended to enhance growth rates.

C=C1C[C@]23C[C@@]1(O)CC[C@H]2[C@@]12C=C[C@H](O)[C@@](C)(C(=O)O1)[C@H]2[C@@H]3C(=O)O [GA3]
increase in α-amylase activity over basal levels ([1]; 72 h incubation with GA3, control lines WT, grd2b): ~15 fold | α-Amylase at 42 h ([1]; line Him, genotype WT): 9.81 ± 0.86 Ceralpha units/grain | α-Amylase at 42 h ([1]; line M463, genotype grd2b): 7.20 ± 0.73 Ceralpha units/grain | α-Amylase at 72 h ([1]; line Him, genotype WT): 23.1 ± 2.8 Ceralpha units/grain | α-Amylase at 72 h ([1]; line M463, genotype grd2b): 18.9 ± 1.4 Ceralpha units/grain | LERmax ([2]; line Him (Himalaya), genotype WT): 52.3 ± 0.1 mm · d^−1 | LERmax ([2]; line M463, genotype grd2b): 49.8 ± 0.8 mm · d^−1 | LERmax ([2]; line M640, genotype Sln1d): 12.1 ± 0.3 mm · d^−1 | LERmax ([2]; line M693, genotype gse1n): 35.3 ± 1.2 mm · d^−1
